Reference: PubChem BioAssay AID248 (DTP/NCI, 2004)
“And” between values parts separate entries of the source, which are not always exact repeats. Equal entries are not always repeated. Toxic doses and inconclusive results are not listed. No stated cut-off is given here; in the data, active means T/C of 150% or more; inactive means T/C below 125%. Square brackets hold non-standard residues; d marks the D form. Peptide text beside a SMILES is read from it. * marks the point of attachment. Cbz = O=C(OCc1ccccc1)*; OBn = c1ccc(CO*)cc1; Sar = CNCC(=O)O

Test system: L1210 leukemia ip in BDF1 mice, survival T/C
Assay: NCI In Vivo Anticancer Drug Screen. Data for tumor model L1210 Leukemia (intraperitoneal) in B6D2F1 (BDF1) mice
Details: endpoint: mean survival time, higher = longer survival
How it was run: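 Value reflects the ratio of survival in compound-treated mice to survival in vehicle-treated controls, with both groups carrying the same transplanted tumor.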

[1] = dose: 100.0 mg/kg/injection, schedule: Q01DX009 (ip), vehicle: Klucel (hydroxypropylcellulose) (HPC)
[2] = dose: 200.0 mg/kg/injection, schedule: Q01DX009 (ip), vehicle: Klucel (hydroxypropylcellulose) (HPC)
[3] = dose: 100.0 mg/kg/injection, schedule: Q04DX003 (ip), vehicle: saline with Tween-80
[4] = dose: 200.0 mg/kg/injection, schedule: Q04DX003 (ip), vehicle: saline with Tween-80
[5] = dose: 100.0 mg/kg/injection, schedule: Q04DX003 (ip), vehicle: Klucel (hydroxypropylcellulose) (HPC)
[6] = dose: 200.0 mg/kg/injection, schedule: Q04DX003 (ip), vehicle: Klucel (hydroxypropylcellulose) (HPC)
[7] = dose: 400.0 mg/kg/injection, schedule: Q04DX003 (ip), vehicle: Klucel (hydroxypropylcellulose) (HPC)
[8] = dose: 400.0 mg/kg/injection, schedule: Q04DX003 (ip), vehicle: saline with Tween-80
[9] = dose: 100.0 mg/kg/injection, schedule: Q01DX001 (ip), vehicle: saline
[10] = dose: 200.0 mg/kg/injection, schedule: Q01DX001 (ip), vehicle: saline
[11] = dose: 400.0 mg/kg/injection, schedule: Q01DX001 (ip), vehicle: saline

Measured: T/C

CNCCc1cc2c(cc1C=O)OCO2
inactive: dose: 75.0 mg/kg/injection, schedule: Q01DX001 (ip), vehicle: saline 96 % of control | dose: 150.0 mg/kg/injection, schedule: Q01DX001 (ip), vehicle: saline 106 % of control

CCOC(=O)CNC(=O)Nc1cccc(Cl)c1Cl
inactive: [1] 102 % of control | [2] 98 % of control | dose: 400.0 mg/kg/injection, schedule: Q01DX009 (ip), vehicle: Klucel (hydroxypropylcellulose) (HPC) 98 % of control

O=C1c2ccccc2C(C(O)(C(F)(F)F)C(F)(F)F)c2ccccc21
inactive: [3] 92 % of control | [4] 97 % of control

COc1ccccc1C(=O)NS(=O)(=O)c1ccc(Cl)cc1
inactive: dose: 100.0 mg/kg/injection, schedule: Q04DX003 (ip), vehicle: acetone 113 % of control | dose: 200.0 mg/kg/injection, schedule: Q04DX003 (ip), vehicle: acetone 101 % of control | dose: 400.0 mg/kg/injection, schedule: Q04DX003 (ip), vehicle: acetone 96 % of control

O=c1onc(-c2ccccc2)c2ccccc12
inactive: dose: 12.5 mg/kg/injection, schedule: Q04DX002 (ip), vehicle: saline with Tween-80 106 % of control | dose: 25.0 mg/kg/injection, schedule: Q04DX002 (ip), vehicle: saline with Tween-80 106 % of control | dose: 50.0 mg/kg/injection, schedule: Q04DX002 (ip), vehicle: saline with Tween-80 103 % of control

C=CS(=O)(=O)CCCCCCCCCCCCCCCCCC
inactive: [5] 91 % of control | [6] 91 % of control | [7] 98 % of control

Cc1ccc(S(=O)(=O)OCC2OCC(OC(=O)c3ccccc3)C(OC(=O)c3ccccc3)C2OC(=O)c2ccccc2)cc1 (centres undefined)
inactive: [3] 93 % of control | [4] 93 % of control | [8] 90 % of control

NC(=O)NC1C(c2ccccc2)C1c1ccccc1 (centres undefined)
inactive: [9] 121 % of control | [10] 110 % of control | [11] 93 % of control

CCOP(=O)(Cc1ccc(CP(=O)(OCC)OCC)cc1)OCC
inactive: dose: 100.0 mg/kg/injection, schedule: Q04DX003 (ip), vehicle: saline 105 % of control | dose: 200.0 mg/kg/injection, schedule: Q04DX003 (ip), vehicle: saline 97 % of control | dose: 400.0 mg/kg/injection, schedule: Q04DX003 (ip), vehicle: saline 101 % of control

O=c1cc(C(F)(F)F)[nH]c2ccccc12
inactive: dose: 25.0 mg/kg/injection, schedule: Q04DX002 (ip), vehicle: Klucel (hydroxypropylcellulose) (HPC) 106 % of control | dose: 50.0 mg/kg/injection, schedule: Q04DX002 (ip), vehicle: Klucel (hydroxypropylcellulose) (HPC) 98 % of control

OCCCCCCN=Cc1ccccc1O.OCCCCCCN=Cc1ccccc1O.[Cu]
inactive: dose: 9.5 mg/kg/injection, schedule: Q01DX001 (ip), vehicle: other 95 % of control | dose: 19.0 mg/kg/injection, schedule: Q01DX001 (ip), vehicle: other 100 % of control and 92 % of control | dose: 19.0 mg/kg/injection, schedule: Q01DX009 (ip), vehicle: other 93 % of control | dose: 38.0 mg/kg/injection, schedule: Q01DX001 (ip), vehicle: other 94 % of control and 95 % of control | dose: 38.0 mg/kg/injection, schedule: Q01DX009 (ip), vehicle: other 95 % of control | dose: 75.0 mg/kg/injection, schedule: Q01DX001 (ip), vehicle: other 95 % of control and 102 % of control | dose: 75.0 mg/kg/injection, schedule: Q01DX009 (ip), vehicle: other 96 % of control

O=C1C=CC(=O)c2nc(-c3ccccn3)c(-c3ccccn3)nc21
inactive: dose: 1.56 mg/kg/injection, schedule: Q04DX003 (ip), vehicle: Klucel (hydroxypropylcellulose) (HPC) 92 % of control | dose: 3.12 mg/kg/injection, schedule: Q04DX003 (ip), vehicle: Klucel (hydroxypropylcellulose) (HPC) 93 % of control | dose: 6.25 mg/kg/injection, schedule: Q04DX003 (ip), vehicle: Klucel (hydroxypropylcellulose) (HPC) 90 % of control | dose: 18.0 mg/kg/injection, schedule: Q01DX009 (ip), vehicle: Klucel (hydroxypropylcellulose) (HPC) 101 % of control | dose: 28.0 mg/kg/injection, schedule: Q01DX009 (ip), vehicle: Klucel (hydroxypropylcellulose) (HPC) 100 % of control | dose: 40.0 mg/kg/injection, schedule: Q01DX009 (ip), vehicle: Klucel (hydroxypropylcellulose) (HPC) 93 % of control

NCCCN1CCCC1=O
inactive: [9] 98 % of control | [10] 101 % of control | [11] 98 % of control

CCN(CC)CCN(CC)C(=S)Nc1ccccc1
inactive: dose: 12.5 mg/kg/injection, schedule: Q01DX009 (ip), vehicle: Klucel (hydroxypropylcellulose) (HPC) 117 % of control | dose: 25.0 mg/kg/injection, schedule: Q01DX009 (ip), vehicle: Klucel (hydroxypropylcellulose) (HPC) 109 % of control | dose: 50.0 mg/kg/injection, schedule: Q01DX009 (ip), vehicle: Klucel (hydroxypropylcellulose) (HPC) 102 % of control

O=C(Nc1ccc([N+](=O)[O-])cc1O)c1ccccc1
inactive: [3] 92 % of control | [4] 92 % of control

N#Cc1c(N)[n+]([O-])c2c([n+]1[O-])CCCC2
inactive: dose: 100.0 mg/kg/injection, schedule: Q04DX002 (ip), vehicle: Klucel (hydroxypropylcellulose) (HPC) 101 % of control | dose: 200.0 mg/kg/injection, schedule: Q04DX002 (ip), vehicle: Klucel (hydroxypropylcellulose) (HPC) 104 % of control | dose: 400.0 mg/kg/injection, schedule: Q04DX002 (ip), vehicle: Klucel (hydroxypropylcellulose) (HPC) 87 % of control

NC(=NCc1ccccc1)c1ncn(C2CCCC2)c1N
inactive: dose: 12.5 mg/kg/injection, schedule: Q01DX001 (ip), vehicle: Klucel (hydroxypropylcellulose) (HPC) 103 % of control | dose: 25.0 mg/kg/injection, schedule: Q01DX001 (ip), vehicle: Klucel (hydroxypropylcellulose) (HPC) 102 % of control | dose: 50.0 mg/kg/injection, schedule: Q01DX001 (ip), vehicle: Klucel (hydroxypropylcellulose) (HPC) 96 % of control

Cc1cc2nc(N)[nH]c2cc1C
inactive: dose: 12.5 mg/kg/injection, schedule: Q04DX002 (ip), vehicle: saline + alcohol 96 % of control | dose: 25.0 mg/kg/injection, schedule: Q04DX002 (ip), vehicle: saline + alcohol 96 % of control | dose: 50.0 mg/kg/injection, schedule: Q04DX002 (ip), vehicle: saline + alcohol 100 % of control

CN(CC(=O)OCc1ccccc1)C(=O)CNC(=O)OCc1ccccc1 (Cbz-Gly-[Sar]-OBn)
inactive: [3] 95 % of control | [4] 98 % of control | [8] 98 % of control

O=C(O)C1CCC2(CCCCC2)CC1
inactive: dose: 25.0 mg/kg/injection, schedule: Q01DX009 (ip), vehicle: water 101 % of control | dose: 50.0 mg/kg/injection, schedule: Q01DX009 (ip), vehicle: water 93 % of control | dose: 100.0 mg/kg/injection, schedule: Q01DX009 (ip), vehicle: water 98 % of control | dose: 200.0 mg/kg/injection, schedule: Q01DX009 (ip), vehicle: water 92 % of control

CC1CNC(=S)S1 (centres undefined)
inactive: [1] 105 % of control | [5] 107 % of control | [2] 100 % of control | [6] 102 % of control | [7] 102 % of control
